Data from patent US10766902B2, “Wee-1 inhibiting pyrazolopyrimidinone compounds” (ALMAC DISCOVERY LIMITED, priority 2016, dated 2020).
Where two headings read alike, the source gives them in different places.

How the values were obtained:
[1] = molecular target: Wee-1 kinase (Homo sapiens (Human), UniProt P30291); experiment: Measurement of Wee-1 kinase activity (ADP-Glo luminescence); format: biochemical
How it was run: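 Activated Wee-1 preincubated 30 min at RT with compound in Tris/MgCl2 buffer with BSA and DTT, then reacted 1 h at RT with poly(Lys,Tyr 4:1) (2.0 μg/mL) and 30 μM ATP as added aliquot. ADP formed measured by ADP-Glo luminescence; IC50 by non-linear regression of % inhibition.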

[2] = tested on: phosphorylation of Cdc2 at Tyr15; experiment: ELISA for phosphorylation of Cdc2 at Tyr15 in HT-29 / HCT-116 cells; format: cell-based; details: Homo sapiens
Method: Method 2: Determining the Effect of Compounds on the Phosphorylation of Cdc2 at Tyr15
The colorectal cancer cell lines HT-29 and HCT-116 were purchased from the ATCC and routinely maintained in McCoy's Medium (Invitrogen) supplemented with 10% Foetal Calf Serum.
The cells were trypsinised from their growing vessel and counted, 100 μL of cell suspension containing 6000 cells was pipetted into black 96 well Co-star plates and incubated overnight to allow adherence to the surface at a temperature of 37° C. and an atmosphere of 5% CO2. Test compounds were formulated in DMSO and diluted in foetal calf serum supplemented medium. Incubating medium was removed by aspiration and diluted drug supplemented medium added to each well.
The plate was returned to the incubator for an additional eight hours at 37° C. and an atmosphere of 5% CO2. Post incubation, the drug supplemented medium was aspirated from each well and the cells were washed once in ice-cold phosphate buffered saline (PBS). 100 μL of cell lysis buffer (Cell Signalling Technologies #9803) containing 20 mM Tris, 150 mM NaCl, 1 mM EDTA, 1 mM EGTA, 1% Triton-X100, 2.5 mM sodium pyrophosphate, 1 mM glycerophosphate, 1 mM Na3VO4 and 1 μg/mL leupeptin was added to each well of the 96 well plate and incubated at 4° C. for 30 min. The samples on the plate were snap frozen at −80° C. until required. Immediately before the continuation of the assay, the sample plate was thawed and centrifuged at 4° C. for 10 min and the supernatant transferred to secondary tubes or 96 well plate.
Cell supernatant was mixed in a ratio of 1:1 with sample dilutent buffer and vortexed for one minute. 100 μL of diluted sample was pipetted into pre-coated plates containing a rabbit polyclonal antibody for phospho-cdc2 (Tyr15) (Cell Signalling Technologies PathScan kit #7176). The plate was sealed and incubated overnight at 4° C.
The plate seal was removed and the well contents aspirated, followed by 3×5 min washes with 200 μL of diluted wash buffer. Between each wash the plate was tapped firmly onto blotting paper to ensure the removal of all kit solution. 100 μL of kit detection antibody was added to each well and the plate re-sealed and incubated at 37° C. for 1 h. Post incubation the plate was washed and processed in a similar manner to that previously described.
100 μL of horseradish peroxidise-linked secondary antibody was added to each test well, the plate sealed and incubated for thirty minutes at 37° C. Post incubation, the plate was washed as previously stated, followed by the addition of 100 μL of 3,3′,5,5′ tetramethylbenzidine (TMB reagent). The plate was sealed and incubated at RT for 30 min.
100 μL of stop solution was added to each well and the underside of the plate wiped with a lint-free tissue, prior to spectrophotometric determination. Absorbance from each well was read at 450 nm within 30 min of the addition of the stop solution.
The percentage of phospho-cdc2 was calculated compared to DMSO control and plotted versus the concentration of inhibitor using GraphPad Prism. Data was fitted using non-linear regression analysis and IC50 values generated.

[3] = tested on: SK-LU-1 cells; experiment: Cell viability (CellTiter-Glo), SK-LU-1; format: cell-based; details: Homo sapiens, SK-LU-1, 144 h; cell viability after 6 days
Method: (§1) All cell lines (HT29, A427, A498, SKLU-1) were obtained from the American Type Culture Collection (ATCC), maintained in the recommended media supplemented with 10% (v/v) FBS, 1% (v/v) Penicillin/streptomycin and kept at 37° C. in a humidified atmosphere with 5% CO2. Cells were seeded in 96 wp format typically at a seeding density of 3500-5000 cells/well and treated after 24 hours with increasing concentration of compound from 0 to 100 μM in ½ log unit increments. Cell viability was assessed after 72 hours (HT29, A427) or after 6 days (SKLU-1, A498) by CellTiter-Glo® as recommended by the manufacturer's instructions (Promega). Analysis and EC50 values were derived using GraphPadPrism.

[4] = tested on: A498 cells; experiment: Cell viability (CellTiter-Glo), A498; format: cell-based; details: Homo sapiens, A498, 144 h; cell viability after 6 days
Method: as §1

[5] = tested on: HT29 cells; experiment: Cell viability (CellTiter-Glo), HT29; format: cell-based; details: Homo sapiens, HT-29; cell viability after 72 hours
Method: as §1

[6] = tested on: A427 cells; experiment: Cell viability (CellTiter-Glo), A427; format: cell-based; details: Homo sapiens, A-427; cell viability after 72 hours
Method: as §1

[7] = 8 h, Table 2, colorectal cancer cells, eight hours incubation, read-out: ELISA p-CDC2 EC50
[8] = Table 7, data obtained as described in the experimental section of the current invention, read-out: Wee-1/nM
[9] = Table 3, read-out: ELISA p-CDC2 EC50

Sequence of Wee-1 kinase (P30291 whole entry): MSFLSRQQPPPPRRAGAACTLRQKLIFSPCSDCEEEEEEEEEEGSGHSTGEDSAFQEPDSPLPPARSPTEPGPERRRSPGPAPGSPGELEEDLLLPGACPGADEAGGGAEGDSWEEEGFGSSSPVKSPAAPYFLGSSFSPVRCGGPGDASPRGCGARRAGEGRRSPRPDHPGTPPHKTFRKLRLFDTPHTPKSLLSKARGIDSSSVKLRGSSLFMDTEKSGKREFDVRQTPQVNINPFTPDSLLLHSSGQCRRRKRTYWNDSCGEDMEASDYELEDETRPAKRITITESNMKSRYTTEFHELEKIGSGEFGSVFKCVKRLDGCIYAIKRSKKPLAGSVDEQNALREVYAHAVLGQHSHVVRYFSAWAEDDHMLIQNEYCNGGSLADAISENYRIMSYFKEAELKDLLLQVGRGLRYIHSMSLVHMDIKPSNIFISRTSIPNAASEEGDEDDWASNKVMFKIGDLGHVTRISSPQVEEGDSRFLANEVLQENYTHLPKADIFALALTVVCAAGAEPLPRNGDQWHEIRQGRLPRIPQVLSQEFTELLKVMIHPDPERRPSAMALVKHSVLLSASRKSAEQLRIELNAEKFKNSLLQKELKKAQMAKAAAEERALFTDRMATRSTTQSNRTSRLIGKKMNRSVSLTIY

SMILES	IC50 ([1]; read-out: Wee1 IC50)	EC50 [2, 7]	other results
C=CCn1c(=O)c2cnc(Nc3ccc(N4CCN(C(C)C)CC4)cc3)nc2n1-c1cccc(N=S(C)(C)=O)n1 [Example 7, 1-(6-{[Dimethyl(oxo)-λ^6-sulfanylidene]amino}pyridine-2-yl)-2-(prop-2-en-1-yl)-6-({4-[4-(propan-2-yl)piperazin-1-yl]phenyl}amino)-1H,2H,3H-pyrazolo[3,4-d]pyrimidin-3-one]	0.7 nM	9 nM	–
C=CCn1c(=O)c2cnc(Nc3ccc(N4CCOCC4)cc3)nc2n1-c1cccc(N=S(C)(C)=O)n1 [Example 12, 1-(6-{[Dimethyl(oxo)-λ^6-sulfanylidene]amino}pyridine-2-yl)-6-{[4-(morpholin-4-yl)phenyl]amino}-2-(prop-2-en-1-yl)-1H,2H,3H-pyrazolo[3,4-d]pyrimidin-3-one]	0.5 nM	26 nM	IC50 [1, 8]: 0.5 nM; EC50 [3]: 30 nM; EC50 [4]: 27 nM; EC50 [5]: 27 nM; EC50 [6]: 27 nM; EC50 [2, 9]: 26 nM
C=CCn1c(=O)c2cnc(Nc3ccc(N4CCNCC4)c(Cl)c3)nc2n1-c1cccc(N=S(C)(C)=O)n1 [Example 14, 6-{[3-Chloro-4-(piperazin-1-yl)phenyl]amino}-1-(6-{[dimethyl(oxo)-λ^6-sulfanylidene]amino}pyridine-2-yl)-2-(prop-2-en-1-yl)-1H,2H,3H-pyrazolo[3,4-d]pyrimidin-3-one]	0.8 nM	5 nM	–
CC(C)n1c(=O)c2cnc(Nc3ccc(N4CCN(C)CC4)cc3)nc2n1-c1cccc(N=S(C)(C)=O)n1 [Example 20, 1-(6-{[Dimethyl(oxo)-λ^6-sulfanylidene]amino}pyridin-2-yl)-6-{[4-(4-methylpiperazin-1-yl)phenyl]amino}-2-(propan-2-yl)-1H,2H,3H-pyrazolo[3,4-d]pyrimidin-3-one]	1.4 nM	47 nM	IC50 ([1]; Table 6, Present Invention, read-out: Wee-1/nM): 1.4 nM; EC50 ([2]; Table 6, Present Invention, read-out: ELISA/nM): 47 nM
C=CCn1c(=O)c2cnc(Nc3ccc(N4CCN[C@H](COC)C4)cc3)nc2n1-c1cccc(N=S(C)(C)=O)n1 [Example 76, 1-(6-{[Dimethyl(oxo)-λ^6-sulfanylidene]amino}pyridin-2-yl)-6-({4-[(3S)-3-(methoxymethyl)piperazin-1-yl]phenyl}amino)-2-(prop-2-en-1-yl)-1H,2H, 3H-pyrazolo[3,4-d]pyrimidin-3-one]	0.6 nM	28 nM	–

The next compounds have a lower IC50 ([1]; read-out: Wee1 IC50) than those just listed; values first:

IC50 ([1]; read-out: Wee1 IC50)	EC50 [2, 7]	SMILES	other results
0.4 nM	4 nM	C=CCn1c(=O)c2cnc(Nc3ccc(N4CCNCC4)c(C)c3)nc2n1-c1cccc(N=S(C)(C)=O)n1 [Example 26, 1-(6-{[Dimethyl(oxo)-λ^6-sulfanylidene]amino}pyridin-2-yl)-6-{[3-methyl-4-(piperazin-1-yl)phenyl]amino}-2-(prop-2-en-1-yl)-1H,2H,3H-pyrazolo[3,4-d]pyrimidin-3-one]	–
0.3 nM	5 nM	C=CCn1c(=O)c2cnc(Nc3ccc(N4CCO[C@H](COC)C4)cc3)nc2n1-c1cccc(N=S(C)(C)=O)n1 [Example 54, 1-(6-{[Dimethyl(oxo)-λ^6-sulfanylidene]amino}pyridin-2-yl)-6-({4-[(2S)-2-(methoxymethyl)morpholin-4-yl]phenyl}amino)-2-(prop-2-en-1-yl)-1H,2H,3H-pyrazolo[3,4-d]pyrimidin-3-one]	EC50 [3]: 35 nM; EC50 [4]: 16 nM; EC50 [5]: 32 nM; EC50 [6]: 17 nM; EC50 [2, 9]: 5 nM
0.2 nM	6 nM	C=CCn1c(=O)c2cnc(Nc3ccc(N(C)C)cc3)nc2n1-c1cccc(N=S(C)(C)=O)n1 [Example 57, 1-(6-{[Dimethyl(oxo)-λ^6-sulfanylidene]amino}pyridin-2-yl)-6-{[4-(dimethylamino)phenyl]amino}-2-(prop-2-en-1-yl)-1H,2H,3H-pyrazolo[3,4-d]pyrimidin-3-one]	IC50 [1, 8]: 0.2 nM
0.1 nM	2 nM	C=CCn1c(=O)c2cnc(Nc3ccc(N4CCOCC4)c(C)c3)nc2n1-c1cccc(N=S(C)(C)=O)n1 [Example 21, 1-(6-{[Dimethyl(oxo)-λ^6-sulfanylidene]amino}pyridin-2-yl)-6-{[3-methyl-4-(morpholin-4-yl)phenyl]amino}-2-(prop-2-en-1-yl)-1H,2H,3H-pyrazolo[3,4-d]pyrimidin-3-one]	–
0.1 nM	7 nM	C=CCn1c(=O)c2cnc(Nc3ccc(N4C[C@H]5COC[C@H]5C4)cc3)nc2n1-c1cccc(N=S(C)(C)=O)n1 [Example 67, 6-({4-[(3aR,6aS)-Hexahydro-1H-furo[3,4-c]pyrrol-5-yl]phenyl}amino)-1-(6-{[dimethyl(oxo)-λ^6-sulfanylidene]amino}pyridin-2-yl)-2-(prop-2-en-1-yl)-1H,2H, 3H-pyrazolo[3,4-d]pyrimidin-3-one]	–
